Common to all, as to type: cell-based
Experiment [1] concerns diffuse intrinsic pontine glioma HSJD-DIPG-011. Description: MTS cell viability assay, DIPG model HSJD-DIPG-011. The settings on record: 72 h incubation, Example 9, Table 3, read-out: IC50 values against cancer cell lines. From the text:
(§1) Cancer cell lines were obtained from the repository maintained at Hospital Sant Joan de Deu (Barcelona, Spain). Cancer cell lines used in these experiment included cancer types of adult glioma (U373 and U87 cell lines), pediatric gliomas including diffuse intrinsic pontine glioma (HSJD-DIPG-007, HSJD-DIPG-011), and pediatric high-grade glioma (HSJD-GBM-001), retinoblastoma (HSJD-RBT-5, HSJD-RBT-7 and HSJD-RBT-14), Ewing sarcoma (A673), rhabdomyosarcoma (Rd and RH4) and neuroblastoma (LAN-1 and SK-N-JD cell lines and HSJD-NB-004, HSJD-NB-005 and HSJD-NB-016 patient-derived cell models). […] To add the drugs to the cells in culture, SN38-linker A-MiniAp4 (Ia) and irinotecan were prepared in culture medium from stock solutions at concentration 1 mg/mL in water. SN38 was prepared in culture medium from a stock solution at concentration 1 mg/mL in DMSO. […] Activity curves were built for adult glioma cell lines U87 (FIG. 1) and U373 (FIG. 2), pediatric gliomas including DIPG models HSJD-DIPG-007 (FIG. 3) and HSJD-DIPG-011 (FIG. 4), and pediatric high-grade glioma model HSJD-GBM-001 (FIG. 5), retinoblastoma models HSJD-RBT-5 (FIG. 6), HSJD-RBT-7 (FIG. 7) and HSJD-RBT-14 (FIG. 8), Ewing sarcoma cell line A673 (FIG. 9), rhabdomyosarcoma cell lines Rd (FIG. 10) and RH4 (FIG. 11), neuroblastoma cell lines LAN-1 (FIG. 12) and SK-N-JD (FIG. 13) and neuroblastoma patient-derived cell models HSJD-NB-004 (FIG. 14), HSJD-NB-005 (FIG. 15) and HSJD-NB-016 (FIG. 16). The established IC50 values are in Table 3.

For experiment [2], the system named is pediatric high-grade glioma HSJD-GBM-001. Description: cells. The settings on record: MTS, 72 h incubation. From the text: Cancer cell lines were obtained from the repository maintained at Hospital Sant Joan de Deu (Barcelona, Spain). Cancer cell lines used in these experiment included cancer types of adult glioma (U373 and U87 cell lines), pediatric gliomas including diffuse intrinsic pontine glioma (HSJD-DIPG-007, HSJD-DIPG-011), and pediatric high-grade glioma (HSJD-GBM-001), retinoblastoma (HSJD-RBT-5, HSJD-RBT-7 and HSJD-RBT-14), Ewing sarcoma (A673), rhabdomyosarcoma (Rd and RH4) and neuroblastoma (LAN-1 and SK-N-JD cell lines and HSJD-NB-004, HSJD-NB-005 and HSJD-NB-016 patient-derived cell models). Briefly, between 3000 and 30,000 cancer cells were cultured in 96 well plates and 24 h later the cells were exposed to compound SN38-linker A-MiniAp4 (Ia) (concentration range 1-0.00000001 μM), SN38 (concentration range 1-0.00000001 μM), or irinotecan (concentration range 100-0,000001 μM). To add the drugs to the cells in culture, SN38-linker A-MiniAp4 (Ia) and irinotecan were prepared in culture medium from stock solutions at concentration 1 mg/mL in water. SN38 was prepared in culture medium from a stock solution at concentration 1 mg/mL in DMSO. The tetrazolium compound [3-(4,5-dimethylthiazol-2-yl)-5-(3-carboxymethoxyphenyl)-2-(4-sulfophenyl)-2H-tetrazolium] (MTS assay; Promega, Fitchburg, WI) was used to determine cell viability after 72 h incubation with the drugs. The concentrations of drug required to cause a reduction of 50% in cell proliferation (IC50 and 95% confidence intervals) were calculated with Graphpad Prism 8 software (La Jolla, CA). Activity curves were built for adult glioma cell lines U87 (FIG. 1) and U373 (FIG. 2), pediatric gliomas including DIPG models HSJD-DIPG-007 (FIG. 3) and HSJD-DIPG-011 (FIG. 4), and pediatric high-grade glioma model HSJD-GBM-001 (FIG. 5), retinoblastoma models HSJD-RBT-5 (FIG. 6), HSJD-RBT-7 (FIG. 7) and HSJD-RBT-14 (FIG. 8), Ewing sarcoma cell line A673 (FIG. 9), rhabdomyosarcoma cell lines Rd (FIG. 10) and RH4 (FIG. 11), neuroblastoma cell lines LAN-1 (FIG. 12) and SK-N-JD (FIG. 13) and neuroblastoma patient-derived cell models HSJD-NB-004 (FIG. 14), HSJD-NB-005 (FIG. 15) and HSJD-NB-016 (FIG. 16). The established IC50 values are in Table 3.
The present inventors compared the activity of the new compound SN38 conjugated with MiniAp4 (SN38-linkerA-MiniAp4, example 7 also named G2B-001) and with SN38-linker B-THRre (comparative example 2). Original compound SN38 was used as reference. Cancer cell lines used in these experiments were pediatric gliomas including diffuse intrinsic pontine glioma HSJD-DIPG-007, and pediatric high-grade glioma HSJD-GBM-001. Briefly, 3000 cancer cells were cultured in 96 well plates and 24 h later the cells were exposed to compound compound (Ia) (concentration range 1-0.00000001 μM), SN38-Linker B-THRre (concentration range 1-0.00000001 μM), and SN38 (concentration range 1-0.00000001 μM). To add the drugs to the cells in culture, SN38-Linker A-MiniAp4 (Ia) and SN38-Linker B-THRre were prepared in culture medium from stock solutions at concentration 1 mg/mL in water. SN38 was prepared in culture medium from a stock solution at concentration 1 mg/mL in DMSO. The MTS assay was used to determine cell viability after 72 h incubation with the drugs. The concentrations of drug required to cause a reduction of 50% in cell proliferation (IC50 and 95% confidence intervals) were calculated with Graphpad Prism 8 software (La Jolla, CA). Activity curves were built for cells HSJD-DIPG-007 (FIG. 20) and HSJD-GBM-001 (FIG. 21). The established IC50 values are in Table 4.
Cancer cell lines used in these experiments were pediatric gliomas including diffuse intrinsic pontine glioma HSJD-DIPG-007, and pediatric high-grade glioma HSJD-GBM-001. Briefly, 3000 cancer cells were cultured in 96 well plates and 24 h later the cells were exposed to compounds (Ia), comparative example 1 and comparative example 2 (concentration range 1-0.001 μM for each of them). […]

Experiment [3] concerns rhabdomyosarcoma cell line Rd. The experiment is described as follows: MTS cell viability assay, rhabdomyosarcoma cell line Rd. Conditions: 72 h incubation, Example 9, Table 3, read-out: IC50 values against cancer cell lines.
Excerpt: as §1

Where [4] appears, read: Example 9, Table 3, read-out: IC50 values against cancer cell lines.
Where [5] appears, read: Example 11, Table 4, read-out: IC50 values of compounds.

Read-outs that look alike come from different tables or passages of the source. *1 amine or outer side, *2 acyl side, *3 side chain or, on linkers, in order; H or OH if unused. Where a SMILES comes first, the peptide text is derived from it. Bridges are numbered along the chain shown (N, C = ends). [ ]: non-standard residue; d: D form. The star is where a group is joined. X1 = CCc1c2c(nc3ccc(O)cc13)-c1cc3c(c(=O)n1C2)COC(=O)[C@@]3(CC)OC(=O)CCCCn1cc(CCCC(=O)NCCCOCCOCCOCCCN*)nn1; Suc = O=C(CCC(=O)[*:2])[*:1]; Dap = NC[C@H](N)C(=O)O

For the compound `CCc1c2c(nc3ccc(OC(=O)N4CCC(N5CCCCC5)CC4)cc13)-c1cc3c(c(=O)n1C2)COC(=O)[C@]3(O)CC` [Irinotecan], the IC50 in experiment [1] stood at 1200 nM; in experiment [2] (setting [4]), 9.57 µM; in experiment [3] (Rhabdomyosarcoma cell), 5960 nM.

As to `CCc1c2c(nc3ccc(O)cc13)-c1cc3c(c(=O)n1C2)COC(=O)[C@]3(O)CC` [SN38, 7-ethyl-10-hydroxy-camptothecin], the IC50 worked out at 1.12 nM in experiment [1], 0.00261 µM in experiment [2] (setting [4]), 0.00631 µM in experiment [2] (setting [5]) and 1.57 nM in experiment [3] (Rhabdomyosarcoma cell).

For `CCc1c2c(nc3ccc(O)cc13)-c1cc3c(c(=O)n1C2)COC(=O)[C@@]3(CC)OC(=O)CCCCn1cc(CCCC(=O)NCCCOCCOCCOCCCNC(=O)CCC(=O)N[C@H]2CNC(=O)C[C@@H](C(N)=O)NC(=O)[C@H](CC(C)C)NC(=O)[C@H](C)NC(=O)[C@H]([C@@H](C)O)NC(=O)[C@H](CCC(=O)O)NC(=O)[C@@H]3CCCN3C(=O)[C@H](C)NC(=O)[C@H](CCCCN)NC2=O)nn1` [SN38-linker A-MiniAp4 (Ia)] ({X1-Suc}-[Dap]KAPETALD-NH2; lactam 1-9), the half-maximal inhibitory concentration (IC50) was 72.9 nM in experiment [1]; 0.0703 µM in experiment [2] (setting [4]); 0.00639 µM in experiment [2] (setting [5]); 0.0216 µM in experiment [2] (Example 12, Table 5, read-out: IC50 values (μM) against cancer cell lines); 6.94 nM in experiment [3].

Source of the values: US20240285784A1, “PEPTIDIC CONJUGATES OF SN38 USEFUL IN THE TREATMENT OF CANCER” (FUNDACIÓ INSTITUT DE RECERCA BIOMÈDICA (IRB BARCELONA), priority 2020, published 2024).
